Assay results: US9457031B2, “Antibacterial protein kinase inhibitors” (priority 2012, dated 2016)

Experiments:
M. tb [1] = format: cell-based, Mycobacterium tuberculosis; settings: 5 μM concentration against M. tb during 72 h; FIGS. 4a and 4b
M. smegmatis = format: cell-based; settings: compared to the parent OSU-03012 and the other derivatives; FIG. 1
M. tb [2] = assay: colony-forming unit (CFU) assay to determine bacterial survival; format: cell-based, Mycobacterium tuberculosis; settings: compared to the parent OSU-03012 and the other derivatives; FIG. 1

Row | SMILES | in vitro antimycobacterial activity upon screening of cpd2-24 derivatives (M. tb [1]) | killing of M. smegmatis (bacterial survival, CFU) (M. smegmatis) | killing of M. tb (bacterial survival, CFU) (M. tb [2])
1 | CNC(=O)CCc1cc(-c2ccc(-c3ccc(C(F)(F)F)cc3)cc2)n(-c2ccc(NC(=O)N3CCOCC3)cc2)n1 [cpd2-24-3, N-(4-(3-(3-(methylamino)-3-oxopropyl)-5-(4′-(trifluoromethyl)-[1,1′-biphenyl]-4-yl)-1H-pyrazol-1-yl)phenyl)morpholine-4-carboxamide] | particularly effective | – | –
2 | CNC(=O)CCc1cc(-c2ccc(-c3ccc(C(F)(F)F)cc3)cc2)n(-c2ccc(NC(=O)c3ccccn3)cc2)n1 [cpd2-24-6, N-(4-(3-(3-(methylamino)-3-oxopropyl)-5-(4′-(trifluoromethyl)-[1,1′-biphenyl]-4-yl)-1H-pyrazol-1-yl)phenyl)picolinamide] | particularly effective | – | –
3 | CNC(=O)CCc1cc(-c2ccc(-c3ccc(C(F)(F)F)cc3)cc2)n(-c2ccc(NC(=O)c3ccncc3)cc2)n1 [cpd2-24-5, N-(4-(3-(3-(methylamino)-3-oxopropyl)-5-(4′-(trifluoromethyl)-[1,1′-biphenyl]-4-yl)-1H-pyrazol-1-yl)phenyl)isonicotinamide] | particularly effective | – | –
4 | CNC(=O)CCc1cc(-c2ccc(-c3ccc(C(F)(F)F)cc3)cc2)n(-c2ccc(NC(=O)c3cccnc3)cc2)n1 [cpd2-24-7, N-(4-(3-(3-(methylamino)-3-oxopropyl)-5-(4′-(trifluoromethyl)-[1,1′-biphenyl]-4-yl)-1H-pyrazol-1-yl)phenyl)nicotinamide] | particularly effective | – | –
5 | NS(=O)(=O)Nc1ccc(-n2nc(C(F)(F)F)cc2-c2ccc3c(ccc4ccccc43)c2)cc1 [cpd-2] | – | significantly kill | significantly kill
